Key:
[1] = Human crossover study, Bond-Lader mood questionnaire: alertness (Example 4); type: in vivo; settings: theobromine 700 mg, caffeine 120 mg, gelatine capsule; for Alertness score in Bond-Lader test, 1 hour: 1 hour after ingestion; for Alertness score in Bond-Lader test, 2 hours: 2 hours after ingestion; for Alertness score in Bond-Lader test, 3 hours: 3 hours after ingestion; for Alertness score in Bond-Lader test, Time zero: time zero (baseline), 24 healthy volunteers
Description: (§1) Volunteers consumed one of 4 treatments: theobromine only, caffeine only, theobromine and caffeine combined or placebo. […] Theobromine was pharmaceutical grade, supplied by Fagron, Netherlands. […] The placebo capsules matched in appearance and were filled with Avicel (microcrystalline cellulose). The gelatin capsules (size 1) were supplied by Blockland Medical supplies and meet European Pharmacopoeia (Ph. Eur) standards. […] Twenty-four healthy volunteers took part and arrived at the laboratory having consumed a standard lunch and having abstained from theobromine- and caffeine-containing foods such as chocolate for 12 hours. At the start of each session, participants answered a baseline set of questionnaires, which took approximately 15 minutes to complete. On completion, they were given a 10 minute break in which to consume the capsules. The questionnaire was repeated 1, 2 and 3 hours after ingestion. Blood pressure was measured at 0, 1 and 3 hours after treatment. Participants were allowed to read quietly between test batteries.

[2] = Human crossover study, systolic blood pressure (Example 4); settings: theobromine 700 mg, caffeine 120 mg; for Change in systolic blood pressure, 1 hour: 1 hour after treatment; for Change in systolic blood pressure, 1 hour / Change in systolic blood pressure, 3 hours / Change in systolic blood pressure, Time zero: gelatine capsule; for Change in systolic blood pressure, 3 hours: 3 hours after treatment
Description: as §1

| SMILES | Alertness score in Bond-Lader test, 1 hour [1] | Alertness score in Bond-Lader test, 2 hours [1] | Alertness score in Bond-Lader test, 3 hours [1] | Alertness score in Bond-Lader test, Time zero [1] | Change in systolic blood pressure, 1 hour [2] | Change in systolic blood pressure, 3 hours [2] | Change in systolic blood pressure, Time zero [2] [Hgmm] | Effect on systolic blood pressure after 1 hour (in words) ([2]; after 1 hour) |
| --- | --- | --- | --- | --- | --- | --- | --- | --- |
| Cn1cnc2c1c(=O)[nH]c(=O)n2C [Theobromine, 3,7-dimethylxanthine] | −0.06 | −0.03 | −0.01 | 0 | +3 Hgmm | +4 Hgmm | 0 | – |
| Cn1c(=O)c2c(ncn2C)n(C)c1=O [Caffeine, 1,3,7-trimethylxanthine] | +0.01 | +0.05 | +0.07 | 0 | +10 Hgmm | −3 Hgmm | 0 | rise in systolic blood pressure (significantly higher than placebo) |
